Reference: patent US7368279B2, “Three dimensional bioengineered smooth muscle tissue and sphincters and methods therefor” (The Regents of The University of Michigan, priority 2004, dated 2008)

Legend:
[1] = tested on: bioengineered colon smooth muscle rings; test: Isometric force of bioengineered colon smooth muscle rings; assay type: cell-based, rabbit
Experimental: To develop a three dimensional physiological model of the smooth muscle cells in vitro, isolated colonic smooth muscle cells were used. Smooth muscle cells isolated from the colon of rabbits were seeded in a fibrin-based tissue construct as described in detail in Example 2. In this construct, the smooth muscle cells migrated and self-assembled in circumferential alignment. As the cells proliferated, the fibrin gel shrunk and contracted around a 5 mm diameter SYLGARD mold, resulting in a 3-D cylindrical ring of colonic tissue (smooth muscle ring). […] Maximal ΔP induced by acetylcholine stimulation was 17.8 μN, resulting in a specific force (sΔP) of […].

[2] = tested on: association of actin with myosin in sphincteric smooth muscle cells; test: Immunoprecipitation/immunoblot: acetylcholine-induced association of actin with myosin; assay type: cell-based, rat; details: 0.1 μM acetylcholine
Experimental: (§1) Decreased association of actin with myosin and decreased association of tropomyosin with HSP27 in sphincteric smooth muscle cells from old rats (28-33 month old) was observed when compared to adult counterparts (18 months old). Whole cell lysates (WCL) from acetylcholine (0.1 μM) stimulated and unstimulated sphincteric smooth muscle cells of adult and old rats were extracted and immunoprecipitated as described previously (Somara et al, Amer. J. Physiol. 286(6): C1290-1301, 2004). Briefly, actin was immunoprecipited using an anti-actin antibody followed by immunoblotting with an anti-myosin antibody. […] To further investigate phospho-HSP27-induced reinstatement of smooth muscle cell contractile function, sphincter smooth muscle cells isolated from old rats IAS were transfected with phosphomimic-HSP27 as described previously. Whole cells lysates were extracted and immunoprecipitated as described previously (Somara et al, Amer. J. Physiol. 286(6): C1290-1301, 2004).

[3] = tested on: bioengineered IAS rings; test: Isometric force (contraction/relaxation) of bioengineered IAS rings; assay type: cell-based, rabbit
Experimental: Excitability and contractility of bioengineered IAS rings was measured using techniques adapted from previous work (Dennis et al., In Vitro Cellular & Developmental Biology Animal 36: 327-335, 2000. Dennis et al., American Journal of Physiology Cell Physiology 280: C288-C295, 2001). The diameter of the sphincter rings was measured and used to calculate cross-sectional area (CSA). The bioengineered sphincters were separated from their molds using forceps (FIG. 1 Panel E) and the minimum ring diameter was measured using a calibrated eyepiece and a 5× or 10× objective lens on an inverted microscope (Zeiss Axiovert 25, Thornwood, N.Y.). The cross section was circular, and therefore the CSA was calculated using the measured diameter. To measure the passive baseline force, the differentiation media in the plate containing the bioengineered sphincter was replaced with 37° C. Krebs solution (NaCl (119 mM), KCl (4.6 mM), NaHCO3 (15 mM), CaCl2 (1.5 mM), MgCl2 (1.2 mM), […], and glucose (11 mM)) and the plate was placed on a heated aluminum platform, which maintained a temperature of 37° C. until the testing was complete. For contractility measurements, one end of the bioengineered sphincter was anchored by a stainless steel pin (10 mm×0.1 mm diameter) to the PDMS substrate within the plate, while another stainless steel pin was bent in the shape of a hook and attached by canning wax to a force transducer (resolution of 1.4 μN and range of 2mN) as previously described (Dennis et al., In Vitro Cellular & Developmental Biology Animal 36: 327-335, 2000, Macpherson et al., J Physiol 500: 523-533, 1997) and as depicted in FIG. 1 (Panels F and G). The bioengineered sphincter was stretched approximately 50% of its resting length using a three-axis micromanipulator. The ring was allowed to sit for 20 minutes in order to reestablish a stable baseline level of force (Pb), which was measured as the average baseline passive force preceding stimulation. All force measurements were collected at 100 samples/second for 60 seconds and recorded using a computer with LabVIEW data acquisition software (National Instruments, Austin, Tex.). A median filter of rank 2 was applied to all raw force data before being stored to minimize digitization noise without causing a phase delay for rapidly changing forces. The peak isometric force (ΔP) was determined by subtracting the Pb from the total force values. Specific force (sΔP) was calculated by dividing ΔP by the CSA. Data analysis was done using LabVIEW and Microsoft Excel software programs. Each measurement was repeated at least three times and the mean value was recorded. Contractions were induced in the rings by the addition of acetylcholine. Dose-response relationships of acetylcholine were investigated in the range of 10^−6M to 10^−10M. Incremental doses of acetylcholine were added after the maximal response of the preceding concentration and the establishment of a new baseline. Relaxation response in the rings was induced by the addition of 8-Bromoadenosine 3′:5′-Cyclic Monophosphate (8-br-cAMP). Maximal relaxation was achieved after approximately 4 minutes and therefore relaxation measurements are collective of four consecutive 1-minute data recordings.

[4] = tested on: association of tropomyosin with HSP27 in sphincteric smooth muscle cells; test: Immunoprecipitation/immunoblot: acetylcholine-induced association of tropomyosin with HSP27; assay type: cell-based, rat; details: 0.1 μM acetylcholine
Experimental: as §1

[5] = tested on: rat IAS cells; test: Acetylcholine-induced contraction of isolated sphincteric smooth muscle cells of adult and old rats; assay type: cell-based; details: for cell population with less than 80 μM cell length: 30 second stimulation
Experimental: To determine the effect of acetylcholine on contraction of isolated muscle cells, acetylcholine (10^−7 M) was added to a suspension of isolated smooth muscle cells for 30 seconds or 4 minutes with untreated cells as controls. The reaction was stopped and cells were fixed by the addition of 0.1 ml of acrolein at a final concentration of 0.1%. Individual cell lengths were measured by computerized image micrometry (Bitar et al., Am J Physiol 242: G400-G407, 1982. Bitar et al., Science 216: 531-533, 1982). The length of cells in the control state or after addition of acetylcholine was obtained by measuring 30-50 cells encountered randomly in successive microscopic fields from each of three separate experiments. The contractile response is defined as the decrease in the average length of the cells counted and is expressed as the percent change from the control length. Acetylcholine-induced contraction of isolated sphincteric smooth muscle cells was defined as the percent decrease in cell length compared to control. […] In old rats, 10^−7M acetylcholine-induced contraction at 30 seconds was approximately 3-fold less forceful (12.8±4.4%) than adult rat cells. […] In addition, after acetylcholine-induced contraction, there was a preponderance of longer cells and in old rats (24% above 80 μm) when compared to adult counterparts (17% above 80).

## CC(=O)OCC[N+](C)(C)C [acetylcholine]
[1]
  maximal ΔP induced by acetylcholine stimulation: 17.8 μN
[2]; adult rats, 30 seconds
  acetylcholine-induced association of actin with myosin: 243.70±8.20%
[2]; adult rats, 4 minutes
  acetylcholine-induced association of actin with myosin: 274.34±10.43%
[2]; old rats, 30 sec
  acetylcholine-induced association of actin with myosin: 175.32±10.12%
[2]; old rats, 4 minutes
  acetylcholine-induced association of actin with myosin: 231.79±10.45%
[3]; 10-fold incremental doses 10^−10 M to 10^−6 M
  concentration at which the concentration-dependent contractile response reaches a plateau: 10^−7 M
[3]; 10^−7 M acetylcholine, Krebs buffer, sustained for 4 minutes
  peak isometric force ΔP: 9.8±3.8 μN
[3]; Krebs buffer
  maximal ΔP induced by acetylcholine stimulation: 33.7 μN
[4]; adult rats, 30 seconds
  acetylcholine-induced association of tropomyosin with HSP27: 218.67±5.48%
[4]; adult rats, 4 minutes
  acetylcholine-induced association of tropomyosin with HSP27: 268.39±6.38%
[4]; old rats, 30 sec
  acetylcholine-induced association of tropomyosin with HSP27: 149.93±8.60%
[4]; old rats, 4 minutes
  acetylcholine-induced association of tropomyosin with HSP27: 223.21±7.46%
[5]; 10^−7 M acetylcholine, 30 seconds
  fold less forceful contraction in old than adult rat cells: approximately 3 fold
[5]; adult rat IAS cells, 10^−7 M acetylcholine, 30 seconds
  contraction, percent decrease in cell length compared to control: 44.7±1.34%
[5]; adult rat IAS cells, 10^−7 M acetylcholine, 4 minutes
  contraction, percent decrease in cell length compared to control: 40.65±1.43%
[5]; adult rat IAS cells, 10^−7 M acetylcholine
  cell population with less than 80 μM cell length: 89%
[5]; adult rats
  longer cells above 80 after acetylcholine-induced contraction: 17%
[5]; old rat IAS cells, 10^−7 M acetylcholine, 30 seconds
  contraction, percent decrease in cell length compared to control: 12.8±4.4%
[5]; old rat IAS cells, 10^−7 M acetylcholine, 4 minutes
  contraction, percent decrease in cell length compared to control: 16.99±6.07%
[5]; old rat IAS cells, 10^−7 M acetylcholine
  cell population with less than 80 μM cell length: 71%
[5]; old rats
  longer cells above 80 μm after acetylcholine-induced contraction: 24%
